Measured values taken from paper PMC9146228, “Bioactivity of Novel Pyrazole-Thiazolines Scaffolds against Trypanosoma cruzi: Computational Approaches and 3D Spheroid Model on Drug Discovery for Chagas Disease” (Pharmaceutics, 2022).

How the values were obtained:
[1] = tested on: T. cruzi (Dm28c-Luc)-infected Vero cell spheroids; assay: 3D culture model: T. cruzi-infected Vero cell spheroids; format: cell-based, Trypanosoma cruzi; conditions: 72 h; for parasite load, arbitrary luminescence unit (ALU): untreated ALU = 166,678 ± 22,824
Method: Tridimensional Vero cell cultures were obtained as previously described. Briefly, the isolated cells (2 × 10^4/well) were cultured in 96-well U-bottom plates previously coated with 1% agarose. The spheroids were kept for 5 days at 37 °C in RPMI 1640 medium supplemented with 10% FBS for complete three-dimensional organization. Both 2D and 3D culture models were used for trypanocidal activity assays.
Vero cell spheroids were infected for 24 h with 2 × 10^5 trypomastigotes (Dm28c-Luc). […] Parasite load was assessed by the luminescence reaction after adding the luciferase substrate (luciferin 300 µg/mL). In addition, fluorescence microscopy images of untreated and treated T. cruzi-infected spheroids were acquired after fixing the cultures with 4% paraformaldehyde in PBS and 4′,6-diamidino-2-phenylindole (DAPI) staining, a DNA dye. The samples were observed under the Zeiss Axio Imager M2 fluorescence microscope (Carl Zeiss, Baden-Württemberg, Germany).

[2] = tested on: T. cruzi (Dm28c-Luc) trypomastigotes; assay: microbe, parasite or virus in culture; format: cell-based, Trypanosoma cruzi; conditions: Trypanosoma cruzi; Dm28c-Luc, 24 h, mean ± SD; read-out: Trypanocidal Activity Trypomastigotes IC90
Method: The screening assays were performed with T. cruzi clone Dm28c (TcI) genetically modified to express luciferase gene (Dm28c-Luc), kindly provided by Dr. Cristina Henriques. Trypomastigotes were isolated from T. cruzi-infected Vero cell monolayers (10:1 parasites/host cell ratio). On the 4th day post-infection (dpi), free trypomastigotes in the culture supernatant were harvested, and the number of parasites/mL was quantified in a Neubauer chamber.
The trypanocidal activity of the pyrazole-thiazoline derivatives was evaluated against trypomastigote and intracellular amastigote forms of T. cruzi (Dm28c-Luc). Tissue-derived trypomastigotes (1 × 10^6 parasites/well) were incubated with pyrazole-thiazoline derivatives and Bz in different concentrations (0.41–100 µM) for 24 h at 37 °C in a humidified atmosphere and 5% CO2. The parasite viability was determined by the addition of luciferin (300 µg/mL), followed by luminescence detection on the GloMax microplate reader (Promega Corporation, Madison, WI, USA).
(§1) After 72 h of treatment, luciferin (300 µg/mL) was added to the culture, and the viability of the parasites was assessed by reading the luminescent signal on the GloMax reader (Promega Corporation, Madison, WI, USA). Controls were also performed in non-toxic concentrations of DMSO (≤ 1%). The concentration that reduces the number of viable parasites by 50% (IC50) or 90% (IC90) was calculated by linear regression. The selectivity index (SI) was calculated as CC50/IC50 for each parasite form.

[3] = tested on: T. cruzi Dm28c-Luc in Vero cell cultures; assay: Reversibility (washout) assay; format: cell-based, Trypanosoma cruzi; conditions: 50 µM, 72 h treatment then 72 h drug-free
Method: Then, the cultures were washed with PBS, and maintained for another 72 h at 37 °C in a drug-free medium. Trypomastigotes released in the culture supernatant were detected by transferring the culture medium to 96-well plates, followed by luciferin (300 µg/mL) addition. Viable intracellular amastigotes were also accessed by adding luciferin solution to the cell monolayers.

[4] = tested on: T. cruzi (Dm28c-Luc) intracellular amastigotes; assay: Trypanocidal activity against intracellular amastigotes in infected Vero cell monolayers; format: cell-based, Trypanosoma cruzi; conditions: Trypanosoma cruzi; Dm28c-Luc in Vero cells, 72 h, mean ± SD; read-out: Trypanocidal Activity Intracellular Amastigotes IC90
Method: The susceptibility of intracellular amastigotes to pyrazole-thiazoline derivatives (series 1 and 2) was evaluated using 24 h T. cruzi-infected Vero cell monolayers (10:1 parasite/host cell ratio). Then, the cultures were washed with PBS to remove non-internalized parasites, and 200 μL of fresh medium with a serial dilution of pyrazole-thiazoline derivatives and Bz (0.41–100 µM) was added for 72 h at 37 °C.
as §1

[5] = tested on: T. cruzi cysteine proteases (trypomastigote protein extract); assay: Proteinase activity in solution (Z-FR-AMC); format: biochemical, Trypanosoma cruzi; conditions: up to 100 µM, Z-FR-AMC substrate
Method: Trypomastigote protein extracts (Dm28c-Luc; 10^8 parasites/mL) were obtained as previously described. The cysteine protease activity of the total protein extracts (5 µg) was measured using the reaction buffer (CH3COONa 10 mM, pH 5.0 containing 1 mM DTT), in the presence of the fluorogenic peptide substrate […], CBZ-L-Phenylalanyl-l-Arginine amide (Z -FR-AMC), and serial dilutions of pyrazole-thiazolines derivatives (100–6.25 µM). The samples were incubated for 45 min at room temperature. The variation in arbitrary fluorescence units (AFU), corresponding to the enzymatic cleavage of the fluorogenic substrate, was monitored in a SpectraMax M2e reader (Molecular Devices, Sunnyvale, CA, USA) for 1 h, with excitation values at 370 nm and emission values at 460 nm. Extracts incubated with 0.5% DMSO or with cysteine protease inhibitor E-64 were used as […]. […] The inhibitory activity was expressed as percentage inhibition.

Vero cells = assay: Cytotoxicity in vitro assay (CellTiter-Glo); format: cell-based; conditions: 72 h, mean ± SD
Method: (§2) Vero cells, obtained from the Rio de Janeiro Cell Bank (BCRJ code 0245), were dissociated with trypsin–EDTA solution (0.025%), and maintained in RPMI 1640 medium supplemented with 10% fetal bovine serum (FBS) at 37 °C in a humidified atmosphere of 5% CO2.
(§3) The compound toxicity was evaluated in Vero cell cultures. Briefly, Vero cells were seeded in 96-well white culture plates at a density of 1.5 × 10^4 cells/well for 24 h at 37 °C and 5% CO2. Thereafter, the cell monolayers were washed with phosphate-buffered saline (PBS) and 200 μL of fresh medium with a serial dilution of the pyrazole-thiazoline derivatives and Bz (1.9–500 µM) added. The cell viability was determined by luminescent assay using the CellTiter-Glo Kit (Promega Corporation, Madison, WI, USA) based on the ATP level. After 72 h of treatment, 20 μL of CellTiter-Glo solution was added per well, and cultures were kept for 2 min under agitation. The luminescent signal was read on the GloMax reader (Promega Corporation, Madison, WI, USA). The concentration of compounds that reduced 50% of cell viability (CC50) was calculated by linear regression. At least three independent assays were performed in duplicate.

[6] = Cytotoxicity in vitro assay (CellTiter-Glo); format: cell-based; conditions: African green monkey, Vero cells, mean ± SD
Method: as §2, §3

In the case of `Clc1ccc(-n2cc(C3=NCCS3)cn2)c(Cl)c1` [Compound 2c, 2-(1-(2,4-dichlorophenyl)-1H-pyrazol-4-yl)-4,5-dihydrothiazole], the “parasite load, arbitrary luminescence unit (ALU)” value ([1]; 25 µM) is reported as 3329 ± 250 ALU, the “parasite load, arbitrary luminescence unit (ALU)” value ([1]; 50 µM) is reported as 1648 ± 343 ALU and the “inhibition compared to untreated T. cruzi-infected microtissue” value ([1]; 25 and 50 µM) is reported as “approximately 98%”. The IC90 [2] was 2.8 ± 0.6 µM, the “reduction of release of trypomastigotes in the culture supernatant after washout” value [3] was 85% and the inhibition at 50 µM ([3]; Trypanosoma cruzi, Vero, read-out: inhibition of cell monolayer infection (intracellular amastigotes) after washout) was 78%. The IC90 [4] was 16.9 ± 2.5 µM, the “maximum inhibition of cysteine protease activity” value [5] was ≤ 10% and the CC50 (Vero cells) was 107 ± 11.4 µM. The CC50 at 72 h [6] was > 100 µM.
